Data reported in patent US20210220312A1, “Compositions And Methods For Modulating Cancer” (Tyme, Inc., priority 2020, published 2021).

System: HCT116 tumors
Experiment: Antitumor effect of oral α-methyl-DL-tyrosine in athymic nude mice bearing HCT116 tumors
Assay type: in vivo
Method: A study was conducted to evaluate the antitumor effect of an oral formulations of α-methyl-DL-tyrosine in athymic nude mice bearing HCT116 tumors. Athymic nude mice (female, 6-7 weeks old) were purchased from Charles River Laboratories, USA. The mice were housed in a ventilated cage rack with HEAP filter system, with 12-hour light cycle at 21-24° C. (70-75° F.) and 40-60% humidity. The mice were fed with Rodent Diet 5001 (Lab Diet) consisting of: >23% protein; >4.5% fat; and >6% fiber. The mice were allowed free access to water ([…] water, 1 ppm CI). The mice were acclimated for 5 days prior to the implantation of HCT116 cells at 1 million cells per mouse in 100 ul of 1×PBS containing 50% Matrigel. At the completion of study, mice were euthanized with isoflurane followed by inhalation of carbon dioxide (CO2). The HCT116 cells (human colon carcinoma) were purchased from ATCC, and expanded to sufficient number of cells for tumor cell implantation. Solutions of α-methyl-DL-tyrosine at 16.2 mg/ml, 32.4 mg/ml, and 64.8 mg/ml in water were prepared After an acclimation period of 5 days, fifty (50) athymic nude female mice were inoculated in the thigh/flank area with 1 million of HCT116 cells suspended in 100 μl 1×PBS containing 50% Matrigel. Beginning at Day 6 post cell inoculation, the tumor volume was measured every day until the average tumor volume reached about 100 mm^3 (Tumor Volume=length×width×width×0.5). Forty-four (44) out of the fifty (50) mice within the range of 50-150 mm^3 were selected and randomly grouped into 4 groups (n=11): a control group treated with water ([…]), and 324 mg/kg (Group 4). The HCT-116 tumor bearing mice were oral gavage (PO) dosed daily at 5 ml/kg with water (Group 1), α-methyl-DL-tyrosine at 81 mg/kg (Group 2), α-methyl-DL-tyrosine at 162 mg/kg (Group 3), and α-methyl-DL-tyrosine at 324 mg/kg (Group 4) for 28 days. Clinical observations were made daily; tumor volume was measured every three to four days prior to dosing until the completion of study or when individual tumor volume exceeds 2000 mm^3.

For `CC(N)(Cc1ccc(O)cc1)C(=O)O` (racemic) [α-methyl-DL-tyrosine], the tumor growth inhibition (324 mg/kg daily PO, p<0.05, t-test) was “statistically significant”, the tumor inhibition (324 mg/kg daily, Day 28) was “non-significant” and the “HCT-116 Tumor volume (group average)” value (G2, 162 mg/kg [sic] PO daily, n = 11, Day 0 post 1st dosing) was 63.5 mm^3. For the same compound, the “HCT-116 Tumor volume (group average)” value (G2, 162 mg/kg [sic] PO daily, n = 11, Day 4 post 1st dosing) was 112.5 mm^3, the “HCT-116 Tumor volume (group average)” value (G2, 162 mg/kg [sic] PO daily, n = 11, Day 7 post 1st dosing) was 215.3 mm^3 and the “HCT-116 Tumor volume (group average)” value (G2, 162 mg/kg [sic] PO daily, n = 11, Day 11 post 1st dosing) was 373.6 mm^3. The “HCT-116 Tumor volume (group average)” value (G2, 162 mg/kg [sic] PO daily, n = 11, Day 14 post 1st dosing) was 643.5 mm^3, the “HCT-116 Tumor volume (group average)” value (G2, 162 mg/kg [sic] PO daily, n = 11, Day 18 post 1st dosing) was 1022.3 mm^3 and the “HCT-116 Tumor volume (group average)” value (G2, 162 mg/kg [sic] PO daily, n = 11, Day 21 post 1st dosing) was 1405.9 mm^3. The “HCT-116 Tumor volume (group average)” value (G2, 162 mg/kg [sic] PO daily, n = 11, Day 25 post 1st dosing) was 1592.4 mm^3, the “HCT-116 Tumor volume (group average)” value (G2, 162 mg/kg [sic] PO daily, n = 11, Day 28 post 1st dosing) was 1718.8 mm^3 and the “HCT-116 Tumor volume (group average)” value (G3, 81 mg/kg [sic] PO daily, n = 11, Day 0 post 1st dosing) was 64.3 mm^3. For the same compound, the “HCT-116 Tumor volume (group average)” value (G3, 81 mg/kg [sic] PO daily, n = 11, Day 4 post 1st dosing) was 106.0 mm^3, the “HCT-116 Tumor volume (group average)” value (G3, 81 mg/kg [sic] PO daily, n = 11, Day 7 post 1st dosing) was 214.6 mm^3 and the “HCT-116 Tumor volume (group average)” value (G3, 81 mg/kg [sic] PO daily, n = 11, Day 11 post 1st dosing) was 391.4 mm^3. For the same compound, the “HCT-116 Tumor volume (group average)” value (G3, 81 mg/kg [sic] PO daily, n = 11, Day 14 post 1st dosing) was 676.6 mm^3, the “HCT-116 Tumor volume (group average)” value (G3, 81 mg/kg [sic] PO daily, n = 11, Day 18 post 1st dosing) was 1210.3 mm^3 and the “HCT-116 Tumor volume (group average)” value (G3, 81 mg/kg [sic] PO daily, n = 11, Day 21 post 1st dosing) was 1680.1 mm^3. The “HCT-116 Tumor volume (group average)” value (G3, 81 mg/kg [sic] PO daily, n = 11, Day 25 post 1st dosing) was 1868.0 mm^3, the “HCT-116 Tumor volume (group average)” value (G3, 81 mg/kg [sic] PO daily, n = 11, Day 28 post 1st dosing) was 1979.2 mm^3 and the “HCT-116 Tumor volume (group average)” value (G4, 324 mg/kg PO daily, n = 11, Day 0 post 1st dosing) was 64.2 mm^3. The “HCT-116 Tumor volume (group average)” value (G4, 324 mg/kg PO daily, n = 11, Day 4 post 1st dosing) was 92.9 mm^3, the “HCT-116 Tumor volume (group average)” value (G4, 324 mg/kg PO daily, n = 11, Day 7 post 1st dosing) was 172.3 mm^3 and the “HCT-116 Tumor volume (group average)” value (G4, 324 mg/kg PO daily, n = 11, Day 11 post 1st dosing) was 310.5 mm^3. For the same compound, the “HCT-116 Tumor volume (group average)” value (G4, 324 mg/kg PO daily, n = 11, Day 14 post 1st dosing) was 506.3 mm^3, the “HCT-116 Tumor volume (group average)” value (G4, 324 mg/kg PO daily, n = 11, Day 18 post 1st dosing) was 654.9 mm^3 and the “HCT-116 Tumor volume (group average)” value (G4, 324 mg/kg PO daily, n = 11, Day 21 post 1st dosing) was 890.6 mm^3. The “HCT-116 Tumor volume (group average)” value (G4, 324 mg/kg PO daily, n = 11, Day 25 post 1st dosing) was 1090.1 mm^3, the “HCT-116 Tumor volume (group average)” value (G4, 324 mg/kg PO daily, n = 11, Day 28 post 1st dosing) was 1325.7 mm^3 and the “maximum anti-tumor efficacy, reduction in tumor volume” value (observed on Day 22 (so in the source)) was 48%.
